Among the data in patent publication US8383624B2 (Abbott Laboratories, priority 2009, dated 2013) are Ki values, retold here.

A value given as a limit tells only on which side of the number the result lay.

In this assay the target is T1, Cdc7 (BEV coexpressed huCDC7/DBF4) (Homo sapiens, UniProt O00311).
T1 construct: made in house; host or cells: baculovirus expression vector (BEV) system
T1 sequence (O00311 whole entry): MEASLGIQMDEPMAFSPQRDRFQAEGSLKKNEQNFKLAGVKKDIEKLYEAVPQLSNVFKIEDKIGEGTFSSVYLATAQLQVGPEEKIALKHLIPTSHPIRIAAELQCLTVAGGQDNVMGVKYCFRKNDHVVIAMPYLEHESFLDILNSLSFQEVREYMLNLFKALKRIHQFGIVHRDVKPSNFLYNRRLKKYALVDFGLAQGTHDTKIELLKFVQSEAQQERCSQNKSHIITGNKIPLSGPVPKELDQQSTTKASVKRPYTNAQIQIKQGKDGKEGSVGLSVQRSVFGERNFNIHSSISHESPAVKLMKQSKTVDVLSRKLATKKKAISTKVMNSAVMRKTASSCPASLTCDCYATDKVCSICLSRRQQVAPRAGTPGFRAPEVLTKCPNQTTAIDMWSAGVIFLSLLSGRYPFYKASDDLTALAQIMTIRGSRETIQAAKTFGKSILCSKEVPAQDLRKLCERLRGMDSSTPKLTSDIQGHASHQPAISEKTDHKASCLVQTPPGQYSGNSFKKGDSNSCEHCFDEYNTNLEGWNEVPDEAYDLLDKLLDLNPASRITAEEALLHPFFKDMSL
T1 sequence (Q9UBU7 whole entry partner): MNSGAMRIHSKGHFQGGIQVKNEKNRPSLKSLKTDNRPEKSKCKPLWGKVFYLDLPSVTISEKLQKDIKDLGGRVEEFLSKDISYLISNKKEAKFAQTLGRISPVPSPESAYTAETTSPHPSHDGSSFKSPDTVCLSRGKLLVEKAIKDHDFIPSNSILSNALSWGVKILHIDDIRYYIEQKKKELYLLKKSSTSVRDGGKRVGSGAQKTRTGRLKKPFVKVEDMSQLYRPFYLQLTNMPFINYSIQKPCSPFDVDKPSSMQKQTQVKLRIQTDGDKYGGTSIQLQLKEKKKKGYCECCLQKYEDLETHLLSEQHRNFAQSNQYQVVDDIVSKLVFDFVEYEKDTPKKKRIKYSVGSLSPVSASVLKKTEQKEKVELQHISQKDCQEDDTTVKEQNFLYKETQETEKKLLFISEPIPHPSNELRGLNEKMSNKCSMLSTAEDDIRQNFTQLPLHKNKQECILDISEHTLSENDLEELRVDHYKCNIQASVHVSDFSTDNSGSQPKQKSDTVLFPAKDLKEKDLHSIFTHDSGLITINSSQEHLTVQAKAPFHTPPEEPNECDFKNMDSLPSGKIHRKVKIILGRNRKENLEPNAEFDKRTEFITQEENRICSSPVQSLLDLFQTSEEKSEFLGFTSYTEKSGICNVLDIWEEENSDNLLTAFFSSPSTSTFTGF
The assay is described as follows: Cdc7 enzyme inhibition assay ([33P]-ATP, biotinylated peptide substrate, FlashPlate). Type of assay: biochemical. The note with it: Table 2; same assay as example 26. Here is the method: Cdc7 (BEV coexpressed huCDC7/DBF4) is prepared internally. Cdc7 assays are conducted as follows with final concentrations as listed. In 384-well v-bottom polypropylene plates, 6 L compound (2% DMSO), is mixed with 6 µL of Cdc7 (2 μg/mL), and Jerini peptide substrate A-All (biotin-C6linker-TPSDSLIYDDGLS) (2 μM), followed by immediate initiation with 6 L […] (1 μM, 20 mCi/μmol) using a reaction buffer comprising 25 mM HEPES, pH 7.5, 1 mM DTT, 10 mM MgCl2, 100 μM Na3VO4, 0.075 mg/ml Triton X-100. Reactions are quenched after 1 hr by the addition of 90 L stop buffer (50 mM EDTA, 2M NaCl). 85 μL of the stopped reactions are transferred to 384-well streptavidin-coated plates (FlashPlate Plus, Perkin Elmer), incubated 30 minutes at room temperature and washed 3 times with 0.05% Tween-20/PBS using an ELX-405 automated plate washer (BioTek), and counted on a TopCount Scintillation Plate Reader (Packard). IC50 values are determined via non-linear regression fitting of enzyme inhibition data and corresponding Ki values are generated assuming ATP-competitive (equilibrium) inhibition and using the experimentally determined apparent ATP Km of 0.7 μM (as determined using the above assay condition, but varying ATP). Table 1 depicts enzyme inhibition data (Ki) for exemplary compounds. In Table 1, “A” represents a Ki of less than 10 nM, “B” represents a Ki of between 10 nM and 100 nM, and “C” represents a Ki of greater than 100 nM.
Table 2 depicts enzyme inhibition data (Ki) for examples 27-43 using the same assay as example 26. In Table 2, “A” represents a Ki of less than 10 nM, “B” represents a Ki of between 10 nM and 100 nM, and “C” represents a Ki of greater than 100 nM.
In the case of `O[C@H]1CC[C@H](Nc2cc(-c3c[nH]c4ncc(Br)nc34)cc(Cl)n2)CC1` [Example 34, trans 4-{[4-(2-bromo-5H-pyrrolo[2,3-b]pyrazin-7-yl)-6-chloropyridin-2-yl]amino}cyclohexanol], the inhibition constant Ki (as a rule, a measure of affinity in units of concentration, obtained from inhibition or displacement) was less than 10 nM. In the case of `Clc1cc(-c2c[nH]c3ncc(Cl)nc23)cc(NC2CCCCC2)n1` [Example 35, 6-chloro-4-(2-chloro-5H-pyrrolo[2,3-b]pyrazin-7-yl)-N-cyclohexylpyridin-2-amine] it was less than 10 nM; in that of `O=C(O)c1cnc2[nH]cc(-c3cc(Cl)nc(NC4CCCCC4)c3)c2n1` [Example 36, 7-[2-chloro-6-(cyclohexylamino)pyridin-4-yl]-5H-pyrrolo[2,3-b]pyrazine-2-carboxylic acid], less than 10 nM. In the case of `N#Cc1cnc2[nH]cc(-c3cc(Cl)nc(NC4CCCCC4)c3)c2n1` [Example 37, 7-[2-chloro-6-(cyclohexylamino)pyridin-4-yl]-5H-pyrrolo[2,3-b]pyrazine-2-carbonitrile] it was less than 10 nM; in that of `Clc1cc(-c2c[nH]c3ncc(-c4ccccc4)nc23)cc(NC2CCCCC2)n1` [Example 38, 6-chloro-N-cyclohexyl-4-(2-phenyl-5H-pyrrolo[2,3-b]pyrazin-7-yl)pyridin-2-amine], 10 to 100 nM; in that of `Clc1cc(-c2c[nH]c3ncc(Nc4ccccc4)nc23)cc(NC2CCCCC2)n1` [Example 39, 7-[2-chloro-6-(cyclohexylamino)pyridin-4-yl]-N-phenyl-5H-pyrrolo[2,3-b]pyrazin-2-amine], 10 to 100 nM. In the case of `Clc1cc(-c2c[nH]c3ncc(NCCCc4ccccc4)nc23)cc(NC2CCCCC2)n1` [Example 40, 7-[2-chloro-6-(cyclohexylamino)pyridin-4-yl]-N-(3-phenylpropyl)-5H-pyrrolo[2,3-b]pyrazin-2-amine] it was 10 to 100 nM.

The compound `Clc1cc(-c2c[nH]c3ncc(-c4cnccn4)nc23)cc(NC2CCCCC2)n1` [Example 41, 6-chloro-N-cyclohexyl-4-[2-(pyrazin-2-yl)-5H-pyrrolo[2,3-b]pyrazin-7-yl]pyridin-2-amine] had a Ki of less than 10 nM. In the case of `COc1cc(N2CCC(N3CCN(C)CC3)CC2)ccc1Nc1cnc2[nH]cc(-c3cc(Cl)nc(NC4CCCCC4)c3)c2n1` [Example 42, 7-[2-chloro-6-(cyclohexylamino)pyridin-4-yl]-N-{2-methoxy-4-[4-(4-methylpiperazin-1-yl)piperidin-1-yl]phenyl}-5H-pyrrolo[2,3-b]pyrazin-2-amine] it was less than 10 nM; in that of `Clc1cc(-c2c[nH]c3ncc(/C=C/c4ccncc4)nc23)cc(NC2CCCCC2)n1` [Example 43, 6-chloro-N-cyclohexyl-4-{2-[(E)-2-(pyridin-4-yl)ethenyl]-5H-pyrrolo[2,3-b]pyrazin-7-yl}pyridin-2-amine], less than 10 nM.
